Reference: US9682995B2, “Amino-substituted isothiazoles” (BAYER PHARMA AKTIENGESELLSCHAFT, priority 2013, dated 2017)

Columns and labels:
human Bub1 = human Bub1 (Homo sapiens (Human), UniProt O43683); assay: Bub1 kinase assay (TR-FRET); format: biochemical; conditions: 10 μM ATP; read-out: Bub1 avg (IC50 [mol/l])
Procedure, shortened: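 His6-tagged human Bub1 catalytic domain (aa 704-1085, insect-cell expressed, ~200 ng/ml) preincubated with compound 15 min, then reacted 60 min at 22 °C with 10 μM ATP and 1 μM biotinylated peptide (final) in pH 7.5 Tris buffer. Phosphopeptide detected by TR-FRET 665/620 ratio, normalised to no-inhibitor and no-enzyme controls.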

HeLa = assay: Proliferation assay (crystal violet), HeLa; format: cell-based; conditions: Homo sapiens, 96 h, 4 days, read-out: Inhibition of proliferation IC50 HeLa
Procedure, shortened: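 Tumour cells seeded at 1000–5000 cells/well in medium with 10% FCS, dosed after 24 h at 0.001–10 μM (0.5% DMSO final) for 4 days. Cell number read by crystal-violet staining after glutaraldehyde fixation (A595), normalised to zero-point plate (0%) and untreated cells (100%); IC50 from 4-parameter fit.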

Sequence of human Bub1 (O43683 704-1085): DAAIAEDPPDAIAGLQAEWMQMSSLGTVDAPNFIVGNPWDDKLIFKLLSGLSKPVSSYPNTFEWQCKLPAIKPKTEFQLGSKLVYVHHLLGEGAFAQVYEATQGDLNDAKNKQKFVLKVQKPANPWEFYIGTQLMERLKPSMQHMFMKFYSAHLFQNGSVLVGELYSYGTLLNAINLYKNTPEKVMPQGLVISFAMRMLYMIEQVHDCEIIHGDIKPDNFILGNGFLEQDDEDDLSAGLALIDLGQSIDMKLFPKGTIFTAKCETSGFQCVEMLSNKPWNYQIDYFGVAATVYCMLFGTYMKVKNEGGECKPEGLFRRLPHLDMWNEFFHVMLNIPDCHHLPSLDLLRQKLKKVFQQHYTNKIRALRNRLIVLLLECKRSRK

SMILES | IC50 (human Bub1) [µM] | IC50 (HeLa) [µM]
COc1ccc(NC(=O)c2c(C)nsc2Nc2cncc(C(F)(F)F)n2)cn1 [Example 84, N-(6-methoxypyridin-3-yl)-3-methyl-5-{[6-(trifluoromethyl)pyrazin-2-yl]amino}-1,2-thiazole-4-carboxamide] | > 20 | 0.29
Cc1nsc(Nc2ccc(C#N)cn2)c1C(=O)Nc1ccc(Cl)c(Cl)c1 [Example 62, 5-[(5-Cyanopyridin-2-yl)amino]-N-(3,4-dichlorophenyl)-3-methyl-1,2-thiazole-4-carboxamide] | > 20 | 0.42
COc1ccc(NC(=O)c2c(C)nsc2Nc2nc3ccc(C)cc3s2)cn1 [Example 90, N-(6-Methoxypyridin-3-yl)-3-methyl-5-[(6-methyl-1,3-benzothiazol-2-yl)amino]-1,2-thiazole-4-carboxamide] | > 20 | 10
Cc1nsc(Nc2cncc(-c3ncco3)n2)c1C(=O)Nc1ccc(Cl)c(F)c1 [Example 63, N-(4-Chloro-3-fluorophenyl)-3-methyl-5-{[6-(1,3-oxazol-2-yl)pyrazin-2-yl]amino}-1,2-thiazole-4-carboxamide] | > 20 | 4.1
COc1ccc(NC(=O)c2c(C)nsc2Nc2nc3cccnc3s2)cn1 [Example 89, N-(6-Methoxypyridin-3-yl)-3-methyl-5-([1,3]thiazolo[5,4-b]pyridin-2-ylamino)-1,2-thiazole-4-carboxamide] | 0.21 | 3.6

Now from value to compound:

IC50 (human Bub1) [µM] | IC50 (HeLa) [µM] | SMILES
> 20 | 0.92 | Cc1nsc(Nc2ccc(C(F)(F)F)nn2)c1C(=O)Nc1ccc(F)c(F)c1 [Example 83, N-(3,4-Difluorophenyl)-3-methyl-5-{[6-(trifluoromethyl)pyridazin-3-yl]amino}-1,2-thiazole-4-carboxamide]
> 20 | 2.5 | CCNc1cncc(Nc2snc(C)c2C(=O)Nc2ccc(F)c(F)c2)n1 [Example 78, N-(3,4-Difluorophenyl)-5-{[6-(ethylamino)pyrazin-2-yl]amino}-3-methyl-1,2-thiazole-4-carboxamide]
> 20 | 0.99 | COC(=O)c1cnc(Nc2snc(C)c2C(=O)Nc2ccc(F)c(F)c2)cn1 [Example 59, Methyl 5-({4-[(3,4-difluorophenyl)carbamoyl]-3-methyl-1,2-thiazol-5-yl}amino)-pyrazine-2-carboxylate]
